The results in this text go back to patent US6476030B1, “Pyrazolo-triazine derivatives as ligands for GABA receptors” (Merck Sharp & Dohme Ltd., priority 1998, dated 2002).

Molecules are shown by their SMILES. Structures can show the parent of a compound that is named as a salt.

For `Cn1ncnc1COc1nn2c(-c3ccccc3F)nncc2c1-c1cccc(N)c1` (as salt: hemisulfate) [Example 94, 3-(3-Aminophenyl)-7-(2-fluorophenyl)-2-(2-methyl-2H-[1,2,4]triazol-3-ylmethoxy)pyrazolo[1,5-d][1,2,4]triazine], the melting point fell in the range of 196 to 200 °C.

As for `Cn1ncnc1COc1nn2c(-c3ccccc3F)nncc2c1-c1ccccc1` [Example 1, 7-(2-Fluorophenyl)-2-(2-methyl-2H-[1,2,4]triazol-3-ylmethoxy)-3-phenylpyrazolo[1,5-d][1,2,4]triazine], the melting point was determined as 176 °C. Regarding `Cn1ncnc1COc1nn2c(-c3ccccc3F)nncc2c1-c1ccccc1F` [Example 2, 3-(2-Fluorophenyl)-7-(2-fluorophenyl)-2-(2-methyl-2H-[1,2,4]triazol-3-ylmethoxy)pyrazolo[1,5-d][1,2,4]triazine], the melting point is 169 °C. Consider `Cn1ncnc1COc1nn2c(-c3ccccc3F)nncc2c1-c1cccc(F)c1` [Example 3, 3-(3-Fluorophenyl)-7-(2-fluorophenyl)-2-(2-methyl-2H-[1,2,4]triazol-3-ylmethoxy)pyrazolo[1,5-d][1,2,4]triazine], for which the melting point stood at 176 °C. Compound `Cn1ncnc1COc1nn2c(-c3ccccc3F)nncc2c1-c1ccc(F)cc1` [Example 4, 3-(4-Fluorophenyl)-7-(2-fluorophenyl)-2-(2-methyl-2H-[1,2,4]triazol-3-ylmethoxy)pyrazolo[1,5-d][1,2,4]triazine] gave a melting point of 192 °C. For the compound `CCn1ncnc1COc1nn2c(-c3ccccc3F)nncc2c1-c1ccccc1` [Example 5, 2-(2-Ethyl-2H-[1,2,4]triazol-3-ylmethoxy)-7-(2-fluorophenyl)-3-phenylpyrazolo[1,5-d][1,2,4]triazine], the melting point was 171 to 173 °C.

Compound `Cn1ncnc1COc1nn2c(-c3cccc(F)c3)nncc2c1-c1ccccc1` [Example 7, 7-(3-Fluorophenyl)-2-(2-methyl-2H-[1,2,4]triazol-3-ylmethoxy)-3-phenylpyrazolo[1,5-d][1,2,4]triazine] returned a melting point of 198 °C. In turn, `Fc1ccccc1-c1nncc2c(-c3ccccc3)c(OCc3ccccn3)nn12` [Example 8, 7-(2-Fluorophenyl)-3-phenyl-2-(pyridin-2-ylmethoxy)pyrazolo[1,5-d][1,2,4]triazine] returned a melting point of 182 to 183 °C. Take `Cn1ncnc1COc1nn2c(-c3c(F)cccc3F)nncc2c1-c1ccccc1` [Example 10, 7-(2,6-Difluorophenyl)-2-(2-methyl-2H-[1,2,4]triazol-3-ylmethoxy)-3-phenylpyrazolo[1,5-d][1,2,4]triazine]: the melting point worked out at 179 °C. In the case of `Cn1ncnc1COc1nn2c(-c3cccs3)nncc2c1-c1ccccc1` [Example 11, 2-(2-Methyl-2H-[1,2,4]triazol-3-ylmethoxy)-3-phenyl-7-(thien-2-yl) pyrazolo[1,5-d][1,2,4]triazine], the melting point is 209 °C.

Compound `Cn1ncnc1COc1nn2c(-c3ccccc3)nncc2c1-c1ccccc1` [Example 12, 3,7-Diphenyl-2-(2-methyl-2H-[1,2,4]triazol-3-ylmethoxy)pyrazolo[1,5-d][1,2,4]triazine] yielded a melting point of 185 °C. As for `Cn1ncnc1COc1nn2c(-c3cc(F)ccc3F)nncc2c1-c1ccccc1` [Example 13, 7-(2,5-Difluorophenyl)-2-(2-methyl-2H-[1,2,4]triazol-3-ylmethoxy)-3-phenylpyrazolo[1,5-d][1,2,4]triazine], the melting point stood at 199 °C. In the case of `Cn1ncnc1COc1nn2c(-c3ccccc3F)nncc2c1-c1cc(F)ccc1F` [Example 14, 3-(2,5-Difluorophenyl)-7-(2-fluorophenyl)-2-(2-methyl-2H-[1,2,4]triazol-3-ylmethoxy)Pyrazolo[1,5-d][1,2,4]triazine] it was 164 to 165 °C; in that of `Cn1ncnc1COc1nn2c(-c3ccccc3F)nncc2c1-c1c(F)cccc1F` [Example 15, 3-(2,6-Difluorophenyl)-7-(2-fluorophenyl)-2-(2-methyl-2H-[1,2,4]triazol-3-ylmethoxy)pyrazolo[1,5-d][1,2,4]triazine], 196 °C; in that of `Cn1ncnc1COc1nn2c(-c3ccccc3F)nncc2c1-c1cccc(F)c1F` [Example 16, 3-(2,3-Difluorophenyl)-7-(2-fluorophenyl)2-(2-methyl-2H-[1,2,4]triazol-3-ylmethoxy)pyrazolo[1,5-d][1,2,4]triazine], 176 °C. `Cn1ncnc1COc1nn2c(-c3ccccc3F)nncc2c1Br` [Example 17, 3-Bromo-7-(2-fluorophenyl)-2-(2-methyl-2H-[1,2,4]triazol-3-ylmethoxy)pyrazolo[1,5-d][1,2,4]triazine]: the melting point was in the range of 215 to 219 °C. The same measure for `Cn1ncnc1COc1nn2c(-c3ccccc3F)nncc2c1-c1cccc(C(F)(F)F)c1` [Example 18, 7-(2-Fluorophenyl)-2-(2-methyl-2H-[1,2,4]triazol-3-ylmethoxy)-3-[3-(trifluoromethyl)phenyl]pyrazolo[1,5-d][1,2,4]triazine]: 152 to 155 °C; for `Cn1ncnc1COc1nn2c(-c3ccccc3F)nncc2c1-c1cc(F)cc(F)c1` [Example 20, 3-(3,5-Difluorophenyl)-7-(2-fluorophenyl)-2-(2-methyl-2H-[1,2,4]triazol-3-ylmethoxy)pyrazolo[1,5-d][1,2,4]triazine]: 171 to 173 °C; for `Cn1ncnc1COc1nn2c(-c3cc(F)ccc3F)nncc2c1C(C)(C)C` [Example 21, 7-(2,5-Difluorophenyl)-3-(1,1-dimethylethyl)-2-(2-methyl-2H-[1,2,4]triazol-3-ylmethoxy)pyrazolo[1,5-d][1,2,4]triazine]: 144 °C. Take `CCn1ncnc1COc1nn2c(-c3cc(F)ccc3F)nncc2c1C(C)(C)C` [Example 22, 7-(2,5-Difluorophenyl)-3-(1,1-dimethylethyl)-2-(2-ethyl-2H-[1,2,4]triazol-3-ylmethoxy)pyrazolo[1,5-d][1,2,4]triazine]: the melting point was 108 °C. Take `Cn1ncnc1COc1nn2c(-c3ccccc3F)nncc2c1C(C)(C)C` [Example 24, 3-(1,1-Dimethylethyl)-7-(2-fluorophenyl)-2-(2-methyl-2H-[1,2,4]triazol-3-ylmethoxy)pyrazolo[1,5-d][1,2,4]triazine]: the melting point was determined as 128 °C.

`CCn1ncnc1COc1nn2c(-c3ccccc3F)nncc2c1C(C)(C)C` [Example 25, 3-(1,1-Dimethylethyl)-2-(2-ethyl-2H-[1,2,4]triazol-3-ylmethoxy)-7-(2-fluorophenyl)pyrazolo[1,5-d][1,2,4]triazine]: the melting point worked out at 105 °C. `CCCn1ncnc1COc1nn2c(-c3ccccc3F)nncc2c1C(C)(C)C` [Example 26, 3-(1,1-Dimethylethyl)-7-(2-fluorophenyl)-2-(2-propyl-2H-[1,2,4]triazol-3-ylmethoxy)pyrazolo[1,5-d][1,2,4]triazine] had a melting point of 93 °C. As to `CCn1ncnc1COc1nn2c(-c3c(F)ccc(F)c3F)nncc2c1C(C)(C)C` [Example 29, 3-(1,1-Dimethylethyl)-2-(2-ethyl-2H-[1,2,4]triazol-3-ylmethoxy)-7-(2,3,6-trifluorophenyl)pyrazolo[1,5-d][1,2,4]triazine], the melting point was found to be 42 °C. `CC(C)n1ncnc1COc1nn2c(-c3cc(F)ccc3F)nncc2c1C(C)(C)C` [Example 30, 7-(2,5-Difluorophenyl)-3-(1,1-dimethylethyl)-2-(2-isopropyl-2H-[1,2,4]triazol-3-ylmethoxy)pyrazolo[1,5-d][1,2,4]triazine]: the melting point was 163 °C. `Cn1ncnc1COc1nn2c(-c3cnccn3)nncc2c1-c1ccccc1F` [Example 31, 3-(2-Fluorophenyl)-2-(2-methyl-2H-[1,2,4]triazol-3-ylmethoxy)-7-(pyrazin-2-yl)pyrazolo[1,5-d][1,2,4]triazine] had a melting point of 179 to 180 °C. Regarding `CCn1ncnc1COc1nn2c(-c3cc(F)ccc3F)nncc2c1C(C)(C)CC` [Example 33, 7-(2,5-Difluorophenyl)-3-(1,1-dimethylpropyl)-2-(2-ethyl-2H-[1,2,4]triazol-3-ylmethoxy)pyrazolo[1,5-d][1,2,4]triazine], the melting point was 85 to 86 °C. In turn, `CCC(C)(C)c1c(OCc2ncnn2C)nn2c(-c3ccccc3F)nncc12` [Example 34, 3-(1,1-Dimethylpropyl)-7-(2-fluorophenyl)-2-(2-methyl-2H-[1,2,4]triazol-3-ylmethoxy)pyrazolo[1,5-d][1,2,4]triazine] displayed a melting point of 89 to 91 °C. Compound `Cn1ncnc1COc1nn2c(-c3ccccc3F)nncc2c1-c1cccnc1` [Example 35, 7-(2-Fluorophenyl)-2-(2-methyl-2H-[1,2,4]triazol-3-ylmethoxy)-3-(pyridin-3-yl)pyrazolo[1,5-d][1,2,4]triazine] came in with a melting point of 181 to 183 °C. `Cn1ncnc1COc1nn2c(-c3ccco3)nncc2c1-c1ccccc1F` [Example 36, 3-(2-Fluorophenyl)-7-(furan-2-yl)-2-(2-methyl-2H-[1,2,4]triazol-3-ylmethoxy)pyrazolo[1,5-d][1,2,4]triazine] yielded a melting point of 204 to 206 °C. For the compound `Cn1ncnc1COc1nn2c(-c3ccc(F)cc3)nncc2c1C(C)(C)C` [Example 37, 3-(1,1-Dimethylethyl)-7-(4-fluorophenyl)-2-(2-methyl-2H-[1,2,4]triazol-3-ylmethoxy)pyrazolo[1,5-d][1,2,4]triazine], the melting point stood at 197 °C. `CCn1ncnc1COc1nn2c(-c3ccc(F)cc3)nncc2c1C(C)(C)C` [Example 38, 3-(1,1-Dimethylethyl)-2-(2-ethyl-2H-[1,2,4]triazol-3-ylmethoxy)-7-(4-fluorophenyl)pyrazolo[1,5-d][1,2,4]triazine]: the melting point is 190 °C. `CCCn1ncnc1COc1nn2c(-c3ccc(F)cc3)nncc2c1C(C)(C)C` [Example 39, 3-(1,1-Dimethylethyl)-7-(4-fluorophenyl)-2-(2-propyl-2H-[1,2,4]triazol-3-ylmethoxy)pyrazolo[1,5-d][1,2,4]triazine] yielded a melting point of 154 °C.

Take `CCn1ncnc1COc1nn2c(-c3ccccc3F)nncc2c1C(C)(C)CC` [Example 40, 3-(1,1-Dimethylpropyl)-2-(2-ethyl-2H-[1,2,4]triazol-3-ylmethoxy)-7-(2-fluorophenyl)pyrazolo[1,5-d][1,2,4]triazine]: the melting point lay in the range of 89 to 92 °C.
